Counter-ions that a name gives are not always drawn. Like-named read-outs stand apart in the source and are kept apart here.

One series has as its target T1, VAChT (Tetronarce californica, UniProt P81721).
T1 construct: using highly purified Torpedo synaptic vesicles; from tissue
T1 sequence (P81721 1-515): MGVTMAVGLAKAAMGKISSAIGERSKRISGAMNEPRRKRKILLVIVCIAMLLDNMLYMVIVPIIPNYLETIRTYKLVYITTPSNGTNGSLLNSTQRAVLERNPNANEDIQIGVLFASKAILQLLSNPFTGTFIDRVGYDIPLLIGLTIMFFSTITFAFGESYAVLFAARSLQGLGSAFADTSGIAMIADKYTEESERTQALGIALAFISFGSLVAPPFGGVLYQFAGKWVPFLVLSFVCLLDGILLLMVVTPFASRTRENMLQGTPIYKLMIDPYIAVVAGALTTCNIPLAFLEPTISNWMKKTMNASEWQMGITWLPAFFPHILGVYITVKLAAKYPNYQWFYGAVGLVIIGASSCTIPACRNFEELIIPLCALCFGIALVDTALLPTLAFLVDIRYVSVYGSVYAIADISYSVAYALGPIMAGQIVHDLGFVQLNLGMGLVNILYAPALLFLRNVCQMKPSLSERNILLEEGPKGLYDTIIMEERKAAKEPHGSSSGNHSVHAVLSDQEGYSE
The series is described as follows: biochemical. It is filed as binding. To be noted: for VAChT/σ selectivity: in words; for σ1/VAChT: selectivity index Ki (σ1)/Ki (VAChT); for σ2/VAChT: selectivity index Ki (σ2)/Ki (VAChT).

The next series has as its target T2, σ1 receptors (Rattus norvegicus, UniProt Q9R0C9).
T2 construct: tested in rat brain and in guinea pig membranes, respectively; from tissue; host or cells: rat brain
The series is described as follows: σ1 binding of Table 5 compounds.

In series [1] the target is T3, σ2 receptor (Rattus norvegicus, UniProt Q5U3Y7).
T3 sequence (Q5U3Y7 1-176): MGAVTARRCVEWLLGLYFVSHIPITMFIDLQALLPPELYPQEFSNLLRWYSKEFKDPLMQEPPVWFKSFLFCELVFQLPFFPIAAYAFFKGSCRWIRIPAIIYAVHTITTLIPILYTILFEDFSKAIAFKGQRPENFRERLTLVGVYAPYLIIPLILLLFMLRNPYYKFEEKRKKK
The series is described as follows: σ2 binding of Table 5 compounds. On the set-up: species or system guinea pig. To be noted: read-out: σ2 Ki (nM) ± SEM; Table 6. As to the method: Compounds were tested for VAChT binding using highly purified Torpedo synaptic vesicles. The σ1 and σ2 binding affinities were tested in rat brain and in guinea pig membranes, respectively. Structures and Equilibrium binding constants (Ki) are reported in Table 5 and Table 6, respectively. As in previous studies, we define ligand selectivity in terms of a selectivity index which is calculated as Ki (σ1 or σ2)/Ki (VAChT).
Consequently, we also screened the target compounds for sigma binding to identify selective VAChT ligands from this new structural class of agents.

Another series addresses T4, σ1 receptor (Cavia porcellus, UniProt Q60492).
T4 construct: using guinea pig brain membrane homogenates; from tissue; host or cells: guinea pig brain membrane homogenates
Nature of the series: σ1 receptor binding assay, (+)-[3H]pentazocine, guinea pig brain membranes.

Series [2] concerns the target T5, human vesicular acetylcholine transporter (VAChT) (Homo sapiens, UniProt Q16572).
T5 construct: expressed in transfected cells; host or cells: PC12 A123.7 cells (crude extract / homogenized, partially clarified cells)
T5 sequence (Q16572 1-532): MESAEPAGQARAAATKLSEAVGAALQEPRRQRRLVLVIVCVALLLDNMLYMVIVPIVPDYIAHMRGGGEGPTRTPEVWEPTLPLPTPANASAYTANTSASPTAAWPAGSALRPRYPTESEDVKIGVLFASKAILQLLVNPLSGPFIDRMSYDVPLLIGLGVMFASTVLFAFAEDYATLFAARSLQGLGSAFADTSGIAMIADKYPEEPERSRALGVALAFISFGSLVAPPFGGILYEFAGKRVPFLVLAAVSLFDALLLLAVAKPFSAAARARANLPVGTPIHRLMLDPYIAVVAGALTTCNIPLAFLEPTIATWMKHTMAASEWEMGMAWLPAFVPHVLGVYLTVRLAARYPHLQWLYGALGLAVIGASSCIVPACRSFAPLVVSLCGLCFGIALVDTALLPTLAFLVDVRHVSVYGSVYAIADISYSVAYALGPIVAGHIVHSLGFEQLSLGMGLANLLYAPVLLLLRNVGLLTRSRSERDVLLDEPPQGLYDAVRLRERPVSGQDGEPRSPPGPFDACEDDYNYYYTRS
Nature of the series: VAChT binding assay, (−)-[3H]vesamicol, human VAChT expressed in PC12 cells.
Procedure: In vitro binding assays of these novel compounds to VAChT were conducted with human vesicular acetylcholine transporter (VAChT) permanently expressed in PC12^A123.7 cells at about 50 pmol/mg of crude extract. […] Duplicate data were averaged and fitted by regression with a rectangular hyperbola to estimate the Ki value of the novel compound. All compounds were independently assayed at least two times.

Series [3] deals with T3, σ2 receptor. The series is described as follows: σ2 receptor binding assay, [3H]DTG, rat liver membrane homogenates. On the set-up: conducted using rat liver membrane homogenates; from tissue; host or cells: rat liver membrane homogenates.
Procedure: The compounds were dissolved in DMF, DMSO, or ethanol, and then diluted in 50 mM Tris-HCl buffer containing 150 mM NaCl and 100 mM EDTA at pH 7.4, prior to performing the σ1 and σ2 receptor binding assays.
The incubation time was 2 h at room temperature. Nonspecific binding was determined from samples that contained 10 μM of cold haloperidol. All other procedures were identical to those described for the σ1 receptor binding assay above.
Ki values were calculated using the method of Cheng and Prusoff and are presented as the mean (±1 SEM).
[4] abbreviates: Table 4, Ki values of VAChT specific compounds, tissue not given, read-out: Sigma-1 σ1.
Where [5] appears, read: Table 4, Ki values of VAChT specific compounds, source not given, read-out: VAChT.
[6] abbreviates: Table 4, Ki values of VAChT specific compounds, tissue not given, read-out: Sigma-2 σ1.
[7] abbreviates: Sigma-2 σ1 (nM), Table 4, Ki values of VAChT specific compounds, tissue not given.

T4 sequence (Q60492 whole entry): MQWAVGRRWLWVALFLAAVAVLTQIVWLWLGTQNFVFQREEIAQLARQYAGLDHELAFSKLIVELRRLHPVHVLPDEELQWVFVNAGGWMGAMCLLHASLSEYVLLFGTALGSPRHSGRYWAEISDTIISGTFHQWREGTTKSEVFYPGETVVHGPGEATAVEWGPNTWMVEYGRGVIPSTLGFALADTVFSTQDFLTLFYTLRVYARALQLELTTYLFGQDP
T2 sequence (Q9R0C9 whole entry): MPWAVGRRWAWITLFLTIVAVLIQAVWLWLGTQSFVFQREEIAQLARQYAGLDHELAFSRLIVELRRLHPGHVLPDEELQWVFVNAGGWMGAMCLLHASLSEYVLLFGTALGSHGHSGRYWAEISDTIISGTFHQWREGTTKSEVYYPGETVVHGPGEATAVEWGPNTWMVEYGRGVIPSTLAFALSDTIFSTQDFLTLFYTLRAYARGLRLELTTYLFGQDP

For orientation: melting point means the temperature of the solid-liquid transition. Regarding `O=C(c1ccc(F)cc1)C1CCN(C2CCN(C(=O)c3ccc(F)cc3)CC2O)CC1` (stereo not drawn) (as salt: oxalate) [Compound 15a, (3′-Hydroxy-[1,4′-bipiperidine]-1′,4-diyl)bis(4-fluorophenyl)methanone], the melting point is 213 °C (dec.).
Still for that read-out and setting: for `Cn1cccc1C(=O)C1CCN(C2Cc3ccccc3CC2O)CC1` (stereo not drawn) (as salt: oxalate) [OS-5-60, (1-(3-Hydroxy-1,2,3,4-tetrahydronaphthalen-2-yl)piperidin-4-yl)(1-methyl-1H-pyrrol-2-yl) methanone oxalate] the value was 212 to 213 °C.
Regarding `O=C(c1ccc(OCCF)nc1)C1CCN([C@H]2Cc3ccccc3C[C@@H]2O)CC1` [TZ-5-3], on VAChT, the Ki came to 0.038 ± 0.00384 µM, the VAChT/σ selectivity result is “moderate or high”, the σ1/VAChT was found to be 55.8 and the σ2/VAChT amounted to 48.9. The molecule also came in with a Ki on σ1 receptors of 2.12 ± 0.049 µM. The Ki on σ2 receptor [1] was found to be 1860 ± 144 nM.
In turn, `COc1ccc(C(=O)C2CCN(C3Cc4c(N)cccc4CC3O)CC2)cn1` (stereo not drawn) (as salt: oxalate) [OS-5-82, (1-(8-Amino-3-hydroxy-1,2,3,4-tetrahydronaphthalen-2-yl)piperidin-4-yl)(6-methoxypyridin-3-yl)methanone oxalate] came in with a melting point of 81.4 to 83.2 °C.
As to `COc1ccc(C(=O)C2CCN(C3CN(Cc4cccnc4)CCC3O)CC2)cc1` (stereo not drawn) [WW-III-25], the Ki at σ1 receptor (setting [4]) worked out at 2.23 ± 0.168 µM; in series [2] (setting [5]), 107 ± 11.1 nM; on σ2 receptor [3] (setting [6]), 17100 ± 3860 nM.
In the case of `COc1ccc(C(=O)C2CCN(C3CCN(Cc4ccncc4)CC3O)CC2)cc1` (racemic) (as salt: oxalate) [Compound 14h, (3′-Hydroxy-1′-(pyridin-4-ylmethyl)-[1,4′-bipiperidin]-4-yl)(4-methoxyphenyl)methanone], the melting point is 188 °C (dec.).
Regarding `O=C(c1ccc(F)cc1)C1CCN(C2CN(Cc3cccnc3)CCC2O)CC1` (stereo not drawn) [WW-III-47], the Ki was 1.16 ± 0.128 µM on σ1 receptor (setting [4]), 237 ± 41.4 nM in series [2] (setting [5]) and 13000 ± 2630 nM at σ2 receptor [3] (setting [6]).
In the case of `Cc1ccc(C(=O)C2CCN(C3Cc4c(N)cccc4CC3O)CC2)cn1` (stereo not drawn) (as salt: oxalate) [OS-5-70, (1-(8-amino-3-hydroxy-1,2,3,4-tetrahydronaphthalen-2-yl)piperidin-4-yl)(6-methylpyridin-3-yl)methanone oxalate], the melting point fell in the range of 98 to 103 °C.
On to “(4-Fluorophenyl)(4′-hydroxy-1′-(pyridin-4-ylmethyl)-[1,3′-bipiperidin]-4-yl)methanone [Compound 16d]”, for which the Ki on σ1 receptor (membrane preparations of guinea pig brain, mean ± SEM, at least three experiments, read-out: σ1 (Ki)) was found to be 1.16 ± 0.128 µM; in series [2] (expressed human VAChT, mean ± SEM, read-out: VAChT (Ki)), 237 nM; at σ2 receptor [3] (homogenates of rat liver, mean ± SEM, read-out: σ2 (Ki)), 13000 ± 2630 nM. The σ1/VAChT selectivity on σ1 receptor (ratio of Ki values, Table 1) is 0.20. For the same molecule, the σ1/σ2 selectivity at σ1 receptor (ratio of Ki values, Table 1) is 11.
As to `COc1ccc(C(=O)C2CCN(C3CN(Cc4ccccc4)CCC3O)CC2)cc1` (stereo not drawn) [WW-1-109], the Ki is 0.208 ± 0.053 µM at σ1 receptor (setting [4]), 35.5 ± 11.1 nM in series [2] (setting [5]) and 8540 ± 1900 nM at σ2 receptor [3] (setting [6]).
On to `O=C(c1ccc(OCCF)cc1)C1CCN(C2Cc3ccccc3CC2O)CC1` (stereo not drawn) [TZ-3-148], for which the VAChT/σ selectivity result on VAChT is on record as “poor selectivity”. Also, the results for the Ki at σ1 receptors and at σ2 receptor [1] were 0.0132 ± 0.0002 µM and 1890 ± 239 nM, respectively.
For `COc1ccc(C(=O)C2CCN(C3CCN(Cc4ccccc4)CC3O)CC2)cc1` (racemic) (as salt: oxalate) [Compound 14g, (1′-Benzyl-3′-hydroxy-[1,4′-bipiperidin]-4-yl)(4-methoxyphenyl)methanone], the melting point is 234 °C (dec.).
The same measure, in the same setting: for `COc1ccc(C(=O)C2CCN(C3CCN(C(=O)c4ccc(F)cc4)CC3O)CC2)cc1` (stereo not drawn) (as salt: oxalate) [Compound 15e, (1′-(4-Fluorobenzoyl)-3′-hydroxy-[1,4′-bipiperidin]-4-yl)(4-methoxyphenyl)methanone] the value was 216 °C (dec.).
Turning to `CNc1ccc(C(=O)C2CCN(C3Cc4ccccc4CC3O)CC2)cc1` (stereo not drawn) [TZ-3-156], at VAChT, the Ki worked out at 0.00303 µM, the VAChT/σ selectivity entry was “high selectivity”, the σ1/VAChT was found to be 100.5 and the σ2/VAChT is recorded as 2040. For the same molecule, at σ1 receptors, the Ki is 0.0132 ± 0.00048 µM. For the same molecule, the Ki on σ2 receptor [1] was found to be 6180 ± 537 nM.
With `Cc1ccc(C(=O)C2CCN(C3Cc4ccccc4CC3O)CC2)cn1` (stereo not drawn) [OS-5-40, oxalate], the results for the Ki at σ1 receptors, at σ2 receptor [1] and at σ2 receptor [3] (setting [7]) were 2.11 ± 0.289 µM, 3770 ± 886 nM and 3770 ± 886 nM, respectively.
Take `Nc1cccc2c1CC(N1CCC(C(=O)c3ccc(F)cc3)CC1)C(O)C2` (single isomer, unassigned) [WW-1-88-1]: the Ki at σ1 receptor (setting [4]) is 3.69 ± 0.537 µM; in series [2] (setting [5]), 366 ± 36 nM; on σ2 receptor [3] (setting [6]) it was 14700 ± 1940 nM.
As to `O=C(c1ccc(F)cc1)C1CCN(C2CCN(C(=O)c3ccccc3)CC2O)CC1` (stereo not drawn) (as salt: oxalate) [Compound 15c, (1′-Benzoyl-3′-hydroxy-[1,4′-bipiperidin]-4-yl)(4-fluorophenyl)methanone], the melting point was 152 °C (dec.).
For `Cn1cccc1C(=O)C1CCN(C2Cc3ccccc3CC2O)CC1` (stereo not drawn) [OS-5-60, (1-(3-Hydroxy-1,2,3,4-tetrahydronaphthalen-2-yl)piperidin-4-yl)(1-methyl-1H-pyrrol-2-yl) methanone oxalate], at VAChT, the Ki is 0.0184 ± 0.00254 µM, the VAChT/σ selectivity result is recorded as “moderate or high”, the σ1/VAChT is reported as 70.7 and the σ2/VAChT came out at 138.8. This molecule registered a Ki on σ1 receptors of 1.3 ± 0.093 µM. The Ki at σ2 receptor [1] was 2550 ± 339 nM. This molecule showed a Ki at σ2 receptor [3] (setting [7]) of 2550 ± 339 nM.
For the molecule `Nc1cccc2c1CC(N1CCC(C(=O)c3cccnc3)CC1)C(O)C2` (stereo not drawn) [OS-5-110, (1-(8-Amino-3-hydroxy-1,2,3,4-tetrahydronaphthalen-2-yl)piperidin-4-yl)(pyridin-3-yl)methanone oxalate], the Ki is 2.2 nM in series [2] (VAChT (nM), Table 4, Ki values of VAChT specific compounds, source not given); 0.118 ± 0.0236 µM on VAChT; 20.3 ± 8.13 µM at σ1 receptors; 5080 ± 221 nM at σ2 receptor [1]; 5080 ± 221 nM on σ2 receptor [3] (setting [7]). In addition, at VAChT, the VAChT/σ selectivity entry was “moderate or high”. Besides, at VAChT, the σ1/VAChT is given as 172.4. This molecule also gave a σ2/VAChT at VAChT of 43.0.
On to `COc1ccc(C(=O)C2CCN(C3CCN(C(=O)c4ccncc4)CC3O)CC2)cc1` (stereo not drawn) (as salt: oxalate) [Compound 15g, (3′-Hydroxy-1′-isonicotinoyl-[1,4′-bipiperidin]-4-yl)(4-methoxyphenyl)methanone], for which the melting point was 220 °C (dec.).
Same read-out and setting: for `Nc1cccc2c1CC(N1CCC(C(=O)c3cccnc3)CC1)C(O)C2` (stereo not drawn) (as salt: oxalate) [OS-5-110, (1-(8-Amino-3-hydroxy-1,2,3,4-tetrahydronaphthalen-2-yl)piperidin-4-yl)(pyridin-3-yl)methanone oxalate] the value was 109 to 111.2 °C.

For the origin of these results see patent US8658131B2, “Compounds comprising 4-benzoylpiperidine as a sigma-1-selective ligand” (Washington University, priority 2010, dated 2014).
